Source: patent US8088815B2, “Spiroindolinone pyrrolidines” (Hoffman-La Roche Inc., priority 2009, dated 2012)

molecular target: interaction between p53 and MDM2 proteins (Homo sapiens, UniProt Q00987); test: HTRF assay of inhibition of the p53-MDM2 interaction (GST-MDM2 / biotinylated p53 peptide); format: binding; conditions: recombinant GST-tagged MDM2 and biotinylated p53 peptide, bsa:0.02%
Sequence (Q00987 whole entry): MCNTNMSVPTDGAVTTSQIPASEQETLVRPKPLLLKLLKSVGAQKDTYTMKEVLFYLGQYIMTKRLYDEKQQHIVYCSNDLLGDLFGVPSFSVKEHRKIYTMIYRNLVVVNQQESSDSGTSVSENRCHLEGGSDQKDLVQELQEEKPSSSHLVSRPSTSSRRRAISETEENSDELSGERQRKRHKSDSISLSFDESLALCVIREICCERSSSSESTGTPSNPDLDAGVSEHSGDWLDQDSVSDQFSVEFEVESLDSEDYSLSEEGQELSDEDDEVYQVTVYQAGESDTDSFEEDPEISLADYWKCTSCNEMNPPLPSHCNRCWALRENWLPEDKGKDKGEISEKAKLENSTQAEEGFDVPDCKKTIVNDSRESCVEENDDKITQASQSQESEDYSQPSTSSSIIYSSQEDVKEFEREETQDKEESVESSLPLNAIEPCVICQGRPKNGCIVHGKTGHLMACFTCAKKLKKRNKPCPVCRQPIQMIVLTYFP

`COc1cc(C(=O)O)c(F)cc1NC(=O)[C@@H]1N[C@@H](CC(C)(C)C)[C@@]2(C(=O)Nc3cc(Cl)ccc32)[C@H]1c1cccc(Cl)c1F` [Example 221, chiral 4-{[(2′S,3′R,4′S,5′R)-6-chloro-4′-(3-chloro-2-fluoro-phenyl)-2′-(2,2-dimethyl-propyl)-2-oxo-1,2-dihydro-spiro[indole-3,3′-pyrrolidine]-5′-carbonyl]amino}-2-fluoro-5-methoxy-benzoic acid] and `CC(C)(C)C[C@@H]1N[C@@H](C(=O)Nc2ccc(CCC(=O)O)cc2)[C@H](c2cccc(Cl)c2F)[C@]12C(=O)Nc1cc(Cl)ccc12` [Example 222, chiral 3-(4-{[(2′S,3′R,4′S,5′R)-6-chloro-4′-(3-chloro-2-fluoro-phenyl)-2′-(2,2-dimethyl-propyl)-2-oxo-1,2-dihydro-spiro[indole-3,3′-pyrrolidine]-5′-carbonyl]-amino}-phenyl)-propionic acid] are the same in IC50: 5 nM for the first, 5 nM for the second.

Compared with `COc1cc(C(=O)NC#N)ccc1NC(=O)[C@@H]1N[C@@H](CC(C)(C)C)[C@@]2(C(=O)Nc3cc(Cl)ccc32)[C@H]1c1cccc(Cl)c1F` [Example 223, chiral (2′S,3′R,4′S,5′R)-6-chloro-4′-(3-chloro-2-fluorophenyl)-N-(4-(cyanocarbamoyl)-2-methoxyphenyl)-2′-(2,2-dimethyl-propyl)-2-oxospiro[indoline-3,3′-pyrrolidine]-5′-carboxamide], “rac-4-{[(2′S,3′R,4′R,5′R)-6-chloro-4′-(3-chloro-4-fluoro-phenyl)-2′-(2,2-dimethyl-propyl)-2-oxo-1,2-dihydro-spiro[indole-3,3′-pyrrolidine]-5′-carbonyl]-amino}-3-methoxy-benzoic acid [Example 127]” is 1.7-fold higher in IC50: 7 nM for the first, 12 nM for the second.
